Test results from ChEMBL document CHEMBL1221272, “Discovery and structure-activity relationships of a series of pyroglutamic acid amide antagonists of the P2X7 receptor” (Bioorg Med Chem Lett, 2010).
In brackets after ≈: the same amount, converted by molar mass. Values belong to the compound of their own block, whether it stands above or below them. Activity calls are given as the source filed them. The calls are words filed in the database; no cut-off is given here.

Tests used:
P2X purinoceptor 7 [1] = biological target: T1, P2X purinoceptor 7 (Homo sapiens, UniProt Q99572); assay: Inhibition of human P2X7 receptor by ethidium bromide release assay
T1 sequence (Q99572 whole entry): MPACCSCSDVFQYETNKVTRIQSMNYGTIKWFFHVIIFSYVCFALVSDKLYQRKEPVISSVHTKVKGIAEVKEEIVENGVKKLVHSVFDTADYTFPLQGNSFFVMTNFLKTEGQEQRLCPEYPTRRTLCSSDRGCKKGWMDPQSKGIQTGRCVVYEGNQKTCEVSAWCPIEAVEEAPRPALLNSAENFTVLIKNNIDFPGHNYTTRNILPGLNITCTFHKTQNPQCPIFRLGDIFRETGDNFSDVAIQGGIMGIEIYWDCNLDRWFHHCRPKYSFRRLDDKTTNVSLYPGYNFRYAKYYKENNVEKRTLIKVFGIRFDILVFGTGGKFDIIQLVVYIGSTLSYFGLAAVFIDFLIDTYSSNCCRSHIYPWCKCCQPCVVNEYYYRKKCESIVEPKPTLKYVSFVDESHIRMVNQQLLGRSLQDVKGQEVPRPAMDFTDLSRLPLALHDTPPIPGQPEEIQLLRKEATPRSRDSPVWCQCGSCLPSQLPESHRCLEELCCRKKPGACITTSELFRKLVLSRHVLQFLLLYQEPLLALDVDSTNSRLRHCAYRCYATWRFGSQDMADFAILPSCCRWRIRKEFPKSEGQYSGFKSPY

Liver microsomes [2] = assay: Intrinsic clearance in rat liver microsome; assay type: ADME
P2X purinoceptor 7 [3] = biological target: T2, P2X purinoceptor 7 (Rattus norvegicus, UniProt Q64663); assay: Inhibition of rat P2X7 receptor by ethidium bromide release assay
T2 sequence (Q64663 whole entry): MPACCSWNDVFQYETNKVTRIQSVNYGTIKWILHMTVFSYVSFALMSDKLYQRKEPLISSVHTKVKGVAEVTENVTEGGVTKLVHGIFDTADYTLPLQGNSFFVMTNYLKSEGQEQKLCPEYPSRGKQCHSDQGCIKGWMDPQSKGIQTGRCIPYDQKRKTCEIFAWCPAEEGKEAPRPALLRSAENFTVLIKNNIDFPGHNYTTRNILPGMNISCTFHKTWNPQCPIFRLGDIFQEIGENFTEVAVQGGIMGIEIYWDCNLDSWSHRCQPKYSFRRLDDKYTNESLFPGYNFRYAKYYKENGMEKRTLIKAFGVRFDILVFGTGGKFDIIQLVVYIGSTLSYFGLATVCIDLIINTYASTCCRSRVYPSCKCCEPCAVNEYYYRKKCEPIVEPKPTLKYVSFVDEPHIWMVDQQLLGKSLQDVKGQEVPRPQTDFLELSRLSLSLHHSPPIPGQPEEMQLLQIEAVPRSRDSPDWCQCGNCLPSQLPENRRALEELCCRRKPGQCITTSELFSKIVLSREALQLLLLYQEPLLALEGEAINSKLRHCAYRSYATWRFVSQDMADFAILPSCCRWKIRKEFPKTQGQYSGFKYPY

[4] = Drug level in plasma of rat chronic constriction injury model at 20 mg/kg, po bid for 8 days measured on last day; assay type: ADME, organism-based; parameters: dose 20 mg/kg, route oral
[5] = Tmax in rat at 3 mg/kg, po for 1 hrs; assay type: ADME, organism-based; parameters: dose 3 mg/kg, route oral; conditions: in vivo
[6] = Cmax in rat at 3 mg/kg, po for 1 hrs; assay type: ADME, organism-based; parameters: dose 3 mg/kg, route oral; conditions: in vivo
[7] = Oral bioavailability in rat at 3 mg/kg for 1 hrs; assay type: ADME, organism-based; conditions: in vivo
Plasma = assay: Drug level in rat plasma at 50 mg/kg, po; assay type: ADME, organism-based; parameters: dose 50 mg/kg, route oral; conditions: in vivo, read-out: Drug uptake
[8] = Lipophilicity, log D of the compound at pH 7.4; assay type: physicochemical; conditions: buffer
Rattus norvegicus [9] = assay: Antiallodynic activity in rat chronic constriction injury model assessed as nerve injury-induced allodynia at 20 mg/kg, po bid measured post dose on day 1 of 8 days treatment; assay type: functional, organism-based; parameters: dose 20 mg/kg
[10] = Half life in rat at 1 mg/kg, iv for 1 hrs; assay type: ADME, organism-based; parameters: dose 1 mg/kg, route intravenous; conditions: in vivo
Rattus norvegicus [11] = assay: AUC in rat at 3 mg/kg, po for 1 hrs; assay type: ADME, organism-based, Plasma; parameters: dose 3 mg/kg, route oral; conditions: in vivo
[12] = Volume of distribution at steady state in rat at 1 mg/kg, iv for 1 hrs; assay type: ADME, organism-based; parameters: dose 1 mg/kg, route intravenous; conditions: in vivo, read-out: Vdss
Liver microsomes [13] = assay: Intrinsic clearance in human liver microsome; assay type: ADME
[14] = Solubility of the compound; assay type: physicochemical
Brain = assay: Drug level in rat brain at 50 mg/kg, po; assay type: ADME, organism-based; parameters: dose 50 mg/kg, route oral; conditions: in vivo, read-out: Drug uptake
[15] = Drug level in brain of rat chronic constriction injury model at 20 mg/kg, po bid for 8 days measured on last day; assay type: ADME, organism-based; parameters: dose 20 mg/kg, route oral
[16] = Blood clearance in rat at 1 mg/kg, iv for 1 hrs; assay type: ADME, organism-based; parameters: dose 1 mg/kg, route intravenous
Rattus norvegicus [17] = assay: Antiallodynic activity in rat chronic constriction injury model assessed as nerve injury-induced allodynia at 20 mg/kg, po bid measured post dose on day 1 of 8 days treatment
Rattus norvegicus [18] = assay: Antiinflammatory activity in rat assessed as inhibition of FCA-induced hypersensitivity at 20 and 50 mg/kg, po bid for 5 days; assay type: functional, organism-based; parameters: dose 50 mg/kg

SMILES: CCN1C(=O)CC[C@H]1C(=O)NCc1ccc(Cl)cc1
IC50 (P2X purinoceptor 7 [1]): 0.631 µM

SMILES: CCN1C(=O)CC[C@H]1C(=O)NCc1ccccc1
IC50 (P2X purinoceptor 7 [1]): < 1 µM

SMILES: CCN1C(=O)CC[C@H]1C(=O)NCC12CC3CC(CC(C3)C1)C2
IC50 (P2X purinoceptor 7 [1]): 0.0794 µM

SMILES: Cc1ccc(-c2cc(C(F)(F)F)nn2-c2ccc(S(N)(=O)=O)cc2)cc1
Activity (Rattus norvegicus [18]): inactive

SMILES: CCN1C(=O)CC[C@H]1C(=O)NCc1ccccc1C(F)(F)F
IC50 (P2X purinoceptor 7 [1]): 0.631 µM

SMILES: CCN1C(=O)CC[C@H]1C(=O)NCc1cccc(C(F)(F)F)c1
IC50 (P2X purinoceptor 7 [1]): 0.1 µM

SMILES: CN(C(=O)c1cc(Cl)c(=O)n(Cc2c(Cl)cccc2Cl)c1)c1ccccc1
IC50 (P2X purinoceptor 7 [3]): 0.316 µM
logD [8]: 4.4
CL (Liver microsomes [2]): > 50 mL/min/g
IC50 (P2X purinoceptor 7 [1]): 0.126 µM

SMILES: CCN1C(=O)CC[C@H]1C(=O)NCC1CCCCC1
IC50 (P2X purinoceptor 7 [1]): < 1 µM

SMILES: Cc1nn(-c2ccccc2)c(C)c1CC(=O)NCc1ccc(F)cc1Cl
logD [8]: 3.4
CL (Liver microsomes [2]): 46 mL/min/g

SMILES: CN(Cc1ccc(Cl)cc1Cl)C(=O)[C@@H]1CCC(=O)N1C
IC50 (P2X purinoceptor 7 [1]): < 1 µM

SMILES: Cc1n[nH]c(C)c1CC(=O)NCc1ccc(Cl)cc1Cl
logD [8]: 2.7
CL (Liver microsomes [2]): 1.3 mL/min/g

Now from value to compound, other results behind:

IC50 (P2X purinoceptor 7 [1]): 0.158 µM
SMILES: CCCN1C(=O)CC[C@H]1C(=O)NCc1ccc(F)cc1Cl

IC50 (P2X purinoceptor 7 [1]): < 1 µM
SMILES: O=C1CC[C@@H](C(=O)NCc2ccc(F)cc2Cl)N1

IC50 (P2X purinoceptor 7 [1]): 0.501 µM
SMILES: O=C(NCc1ccc(F)cc1Cl)[C@@H]1CCC(=O)N1C1CCCC1

IC50 (P2X purinoceptor 7 [1]): 0.398 µM
SMILES: CC(C)CN1C(=O)CC[C@H]1C(=O)NCc1ccc(F)cc1Cl

IC50 (P2X purinoceptor 7 [1]): 0.1 µM
SMILES: CN1C(=O)CC[C@H]1C(=O)NCc1ccc(F)cc1Cl

IC50 (P2X purinoceptor 7 [1]): < 1 µM
SMILES: CCN1CCC[C@H]1C(=O)NCc1ccc(F)cc1Cl

CL (Liver microsomes [2]): 2.3 mL/min/g
SMILES: O=C(NCc1ccc(F)cc1Cl)[C@@H]1CCC(=O)N1C1CCC1

IC50 (P2X purinoceptor 7 [1]): 0.158 µM
SMILES: CCN1C(=O)CC[C@@H]1C(=O)NCc1ccc(F)cc1Cl

CL (Liver microsomes [2]): < 0.5 mL/min/g
IC50 (P2X purinoceptor 7 [1]): 0.0316 µM
SMILES: CCN1C(=O)CC[C@H]1C(=O)NCc1ccc(F)cc1Cl

IC50 (P2X purinoceptor 7 [3]): 1.58 µM
IC50 (P2X purinoceptor 7 [1]): 0.1 µM
SMILES: CC(C)N1C(=O)CC[C@H]1C(=O)NCc1ccc(F)cc1Cl

IC50 (P2X purinoceptor 7 [1]): < 1 µM
SMILES: CCN1C(=O)CC[C@H]1C(=O)NCc1ccccc1OC

Tmax [5]: 1 h
Cmax [6]: 2.45 µM
bioavailability [7]: 65%
IC50 (P2X purinoceptor 7 [3]): 0.316 µM
concentration (Plasma): 12.9 µM
logD [8]: 1.9
half-life [10]: 1.5 h
AUC (Rattus norvegicus [11]): 73 kg·min/L
Vd [12]: 1.1 L/kg
CL (Liver microsomes [13]): < 0.5 mL/min/g
IC50 (P2X purinoceptor 7 [1]): 0.00316 µM
solubility [14]: 0.97 mg/mL (≈ 2900 µM)
concentration (Brain): 26.7 µM
clearance [16]: 0.54 L/h/kg
SMILES: CN1C(=O)CC[C@H]1C(=O)NCc1cccc(C(F)(F)F)c1Cl [GSK1482160]
concentration at 192 h [4]: 5.91 µM
Activity (Rattus norvegicus [9]): Active
concentration at 192 h [15]: 3.36 µM
Activity (Rattus norvegicus [17]): Active

IC50 (P2X purinoceptor 7 [3]): > 10 µM
logD [8]: 2.6
IC50 (P2X purinoceptor 7 [1]): 0.316 µM
SMILES: CC(C)N1C(=O)CCC1C(=O)NCc1ccc(F)cc1Cl (stereo not drawn)

IC50 (P2X purinoceptor 7 [1]): 0.631 µM
SMILES: CCN1C(=O)CC[C@H]1C(=O)NCc1ccccc1Cl

IC50 (P2X purinoceptor 7 [1]): 0.1 µM
SMILES: CC(=O)N1CCC[C@H]1C(=O)NCc1ccc(F)cc1Cl

IC50 (P2X purinoceptor 7 [1]): 0.794 µM
SMILES: O=C(NCc1ccc(F)cc1Cl)[C@@H]1CCC(=O)N1c1ccccc1
